Test results from ChEMBL document CHEMBL1201862, “PubChem BioAssay data set” (2004).
Each block holds one compound with its values, some of them ahead of it. The source made the active and inactive calls.

Assays:
[1] = biological target: Voltage-gated N-type calcium channel alpha-1B subunit/Amyloid beta A4 precursor protein-binding family A member 1 (Homo sapiens, UniProt Q00975+Q02410); type: protein assay
SUMO-activating enzyme = SUMO-activating enzyme (Homo sapiens, UniProt Q9UBT2); test: inhibitors of in vitro SUMOylation cascade, primary screen, biochemical, HTRF, uHTS (AID 2006); type: protein-complex assay
Caspase-3 = biological target: T1, Caspase-3 (Homo sapiens, UniProt P42574); type: functional;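 also: Dose-response selectivity test against caspase-3 for candidate inhibitors of sentrin-specific proteases (SENPs)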
T1 sequence (P42574 whole entry): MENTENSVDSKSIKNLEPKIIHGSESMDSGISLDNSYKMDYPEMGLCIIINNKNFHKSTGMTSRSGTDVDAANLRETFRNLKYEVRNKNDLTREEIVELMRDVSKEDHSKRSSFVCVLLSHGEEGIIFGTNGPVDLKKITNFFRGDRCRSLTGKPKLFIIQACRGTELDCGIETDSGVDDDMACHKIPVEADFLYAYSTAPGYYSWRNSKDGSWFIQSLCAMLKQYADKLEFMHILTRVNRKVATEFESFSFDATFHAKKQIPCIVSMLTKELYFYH

[2] = biological target: T2, Sentrin-specific protease 8 (Homo sapiens, UniProt Q96LD8); type: functional
T2 sequence (Q96LD8 whole entry): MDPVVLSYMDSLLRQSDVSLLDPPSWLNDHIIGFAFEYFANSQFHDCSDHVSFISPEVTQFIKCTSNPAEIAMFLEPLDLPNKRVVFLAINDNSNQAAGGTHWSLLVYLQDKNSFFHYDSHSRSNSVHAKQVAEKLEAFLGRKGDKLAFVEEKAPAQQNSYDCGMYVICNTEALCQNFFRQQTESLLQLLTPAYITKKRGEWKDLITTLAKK

Hexokinase HKDC1 = biological target: T3, Hexokinase HKDC1 (Homo sapiens, UniProt Q2TB90); test: HKDC1 hexokinase inhibitors, dose response, biochemical, W721R variant (AID 504729); type: functional
T3 sequence (Q2TB90 whole entry): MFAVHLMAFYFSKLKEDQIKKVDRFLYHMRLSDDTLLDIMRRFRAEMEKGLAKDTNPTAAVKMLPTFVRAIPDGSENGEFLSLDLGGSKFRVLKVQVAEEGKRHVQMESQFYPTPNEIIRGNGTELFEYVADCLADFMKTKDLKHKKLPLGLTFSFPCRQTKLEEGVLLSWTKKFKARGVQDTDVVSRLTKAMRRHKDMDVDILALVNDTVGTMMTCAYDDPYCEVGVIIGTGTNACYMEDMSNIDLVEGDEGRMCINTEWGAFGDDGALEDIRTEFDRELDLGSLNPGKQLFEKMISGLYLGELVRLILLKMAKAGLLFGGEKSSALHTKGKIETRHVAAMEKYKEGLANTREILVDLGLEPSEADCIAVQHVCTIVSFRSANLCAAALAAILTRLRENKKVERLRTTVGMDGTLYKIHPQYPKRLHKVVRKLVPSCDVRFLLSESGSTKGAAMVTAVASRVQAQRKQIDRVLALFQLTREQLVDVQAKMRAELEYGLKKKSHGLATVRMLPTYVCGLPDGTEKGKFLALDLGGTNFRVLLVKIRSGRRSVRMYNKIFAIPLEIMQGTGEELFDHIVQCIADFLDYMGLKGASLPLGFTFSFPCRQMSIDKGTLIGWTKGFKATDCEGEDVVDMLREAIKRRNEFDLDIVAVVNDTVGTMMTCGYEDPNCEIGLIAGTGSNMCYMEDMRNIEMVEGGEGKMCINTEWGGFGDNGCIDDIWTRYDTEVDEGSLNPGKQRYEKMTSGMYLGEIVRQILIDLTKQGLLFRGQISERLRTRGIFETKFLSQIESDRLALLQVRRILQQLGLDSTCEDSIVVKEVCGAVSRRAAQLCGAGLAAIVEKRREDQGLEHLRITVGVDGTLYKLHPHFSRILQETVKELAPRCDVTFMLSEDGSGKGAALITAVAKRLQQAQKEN

[3] = biological target: Serine/threonine-protein phosphatase PP1-alpha catalytic subunit (Homo sapiens, UniProt P62136); test: PP1 phosphatase inhibitors, dose response, biochemical, fluorescence (AID 2403);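 also: phosphatase turnover of OMFP into fluorescent 3-O-methylfluorescein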
[4] = biological target: T2, Sentrin-specific protease 8; type: functional; remark: listed apart in the source
[5] = biological target: Dual specificity mitogen-activated protein kinase kinase 1 (Homo sapiens, UniProt Q02750); test: Navigating the Kinome. Panel member name: MAP2K1; type: functional
Sequence of Dual specificity mitogen-activated protein kinase kinase 1 (Q02750 whole entry): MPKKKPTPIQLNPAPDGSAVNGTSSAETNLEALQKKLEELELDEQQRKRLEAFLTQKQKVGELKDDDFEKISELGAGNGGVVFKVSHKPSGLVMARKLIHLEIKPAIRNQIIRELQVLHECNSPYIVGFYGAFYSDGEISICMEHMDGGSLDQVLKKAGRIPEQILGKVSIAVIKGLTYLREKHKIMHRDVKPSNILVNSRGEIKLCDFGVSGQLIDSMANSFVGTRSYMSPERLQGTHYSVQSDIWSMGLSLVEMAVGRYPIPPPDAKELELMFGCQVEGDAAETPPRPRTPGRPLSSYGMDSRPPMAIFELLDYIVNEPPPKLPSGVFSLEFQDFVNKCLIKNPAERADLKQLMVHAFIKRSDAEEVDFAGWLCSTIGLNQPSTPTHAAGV

[6] = biological target: Tyrosine-protein kinase JAK2 (Homo sapiens, UniProt O60674); type: functional;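 also: JAK2 tested as one member of a kinase panel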
Sequence of Tyrosine-protein kinase JAK2 (O60674 whole entry): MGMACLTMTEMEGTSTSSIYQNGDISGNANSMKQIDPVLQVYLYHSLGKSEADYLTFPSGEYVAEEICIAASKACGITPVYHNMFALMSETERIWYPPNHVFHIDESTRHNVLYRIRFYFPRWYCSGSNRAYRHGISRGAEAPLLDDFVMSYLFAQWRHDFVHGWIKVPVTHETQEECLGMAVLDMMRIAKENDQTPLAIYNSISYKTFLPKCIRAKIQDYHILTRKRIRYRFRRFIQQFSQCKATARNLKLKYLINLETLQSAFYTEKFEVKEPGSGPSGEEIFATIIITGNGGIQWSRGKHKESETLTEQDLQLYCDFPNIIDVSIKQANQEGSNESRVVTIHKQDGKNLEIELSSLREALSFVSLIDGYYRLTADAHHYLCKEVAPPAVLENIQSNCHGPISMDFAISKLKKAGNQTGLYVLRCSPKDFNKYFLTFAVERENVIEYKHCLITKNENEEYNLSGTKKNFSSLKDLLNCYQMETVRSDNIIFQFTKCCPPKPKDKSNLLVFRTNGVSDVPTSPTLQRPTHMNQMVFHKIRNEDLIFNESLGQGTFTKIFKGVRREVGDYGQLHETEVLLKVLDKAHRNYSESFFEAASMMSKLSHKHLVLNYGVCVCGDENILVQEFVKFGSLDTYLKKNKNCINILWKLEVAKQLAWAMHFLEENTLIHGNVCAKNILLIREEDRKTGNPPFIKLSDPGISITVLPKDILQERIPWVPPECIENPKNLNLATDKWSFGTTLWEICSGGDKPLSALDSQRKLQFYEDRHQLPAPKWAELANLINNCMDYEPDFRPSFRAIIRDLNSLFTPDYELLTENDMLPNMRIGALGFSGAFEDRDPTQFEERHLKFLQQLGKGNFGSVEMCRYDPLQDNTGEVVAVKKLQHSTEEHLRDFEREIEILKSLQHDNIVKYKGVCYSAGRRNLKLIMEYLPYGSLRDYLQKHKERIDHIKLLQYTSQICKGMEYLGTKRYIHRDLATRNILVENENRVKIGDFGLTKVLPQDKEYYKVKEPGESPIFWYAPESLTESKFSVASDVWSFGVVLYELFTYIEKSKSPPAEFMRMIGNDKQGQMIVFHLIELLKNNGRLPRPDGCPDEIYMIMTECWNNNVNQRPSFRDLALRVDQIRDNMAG

[7] = biological target: Death-associated protein kinase 3 (Homo sapiens, UniProt O43293); type: functional;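 also: measured as one member of a kinome-wide profiling panel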
[8] = biological target: Serine/threonine-protein kinase pim-1 (Homo sapiens, UniProt P11309); type: functional
Sequence of Serine/threonine-protein kinase pim-1 (P11309 whole entry): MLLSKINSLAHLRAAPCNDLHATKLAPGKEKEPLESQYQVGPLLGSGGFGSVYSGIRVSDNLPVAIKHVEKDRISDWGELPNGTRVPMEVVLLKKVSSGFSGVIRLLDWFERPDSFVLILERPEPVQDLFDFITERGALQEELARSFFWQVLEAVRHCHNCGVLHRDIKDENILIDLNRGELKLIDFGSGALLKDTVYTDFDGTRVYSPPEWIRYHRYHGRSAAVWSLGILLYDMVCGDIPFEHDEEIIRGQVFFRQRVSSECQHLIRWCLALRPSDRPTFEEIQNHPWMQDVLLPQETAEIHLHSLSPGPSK

[9] = biological target: Serine/threonine-protein kinase PAK 4 (Homo sapiens, UniProt O96013); type: functional;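 also: value obtained within a kinome profiling panel in which PAK4 was one of the panel members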
[10] = biological target: Serine/threonine-protein kinase TAO1 (Homo sapiens, UniProt Q7L7X3); type: functional
[11] = biological target: Mitogen-activated protein kinase kinase kinase kinase 2 (Homo sapiens, UniProt Q12851); type: functional;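 also: measured as one member of a kinome-wide kinase panel, with MAP4K2 as the panel entry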
[12] = biological target: Hepatocyte growth factor receptor (Homo sapiens, UniProt P08581); type: functional;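 also: kinase panel profiling across the kinome, with MET as the panel member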
Activated CDC42 kinase 1 = Activated CDC42 kinase 1 (Homo sapiens, UniProt Q07912); test: Navigating the Kinome. Panel member name: ACK1; type: functional
[13] = biological target: Serine/threonine-protein kinase Chk1 (Homo sapiens, UniProt O14757); type: functional;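 also: measured as one member of a kinome-wide kinase profiling panel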
[14] = biological target: Platelet-derived growth factor receptor alpha (Homo sapiens, UniProt P16234); test: Navigating the Kinome. Panel member name: PDGFRA; type: functional
[15] = biological target: Cyclin-dependent kinase 8 (Homo sapiens, UniProt P49336); test: Navigating the Kinome. Panel member name: CDK8; type: functional
[16] = biological target: Mitogen-activated protein kinase kinase kinase kinase 4 (Homo sapiens, UniProt O95819); type: functional
[17] = biological target: Macrophage-stimulating protein receptor (Homo sapiens, UniProt Q04912); test: Navigating the Kinome. Panel member name: MST1R; type: functional
[18] = biological target: Dual specificity tyrosine-phosphorylation-regulated kinase 1A (Homo sapiens, UniProt Q13627); type: functional;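 also: measured against DYRK1A as one member of a broad kinome profiling panel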
[19] = biological target: Leukocyte tyrosine kinase receptor (Homo sapiens, UniProt P29376); test: Navigating the Kinome. Panel member name: LTK; type: functional
Large T antigen = Large T antigen (Simian virus 40, UniProt P03070); type: functional, Betapolyomavirus macacae;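 also: Confirmatory-stage PubChem screen for compounds that inhibit SV40 T antigen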
[20] = biological target: Intestinal-type alkaline phosphatase (Homo sapiens, UniProt P09923); test: activation of human intestinal alkaline phosphatase – biochemical, dose response (AID 488873); type: functional

Sequence of Voltage-gated N-type calcium channel alpha-1B subunit/Amyloid beta A4 precursor protein-binding family A member 1 (Q00975 whole entry): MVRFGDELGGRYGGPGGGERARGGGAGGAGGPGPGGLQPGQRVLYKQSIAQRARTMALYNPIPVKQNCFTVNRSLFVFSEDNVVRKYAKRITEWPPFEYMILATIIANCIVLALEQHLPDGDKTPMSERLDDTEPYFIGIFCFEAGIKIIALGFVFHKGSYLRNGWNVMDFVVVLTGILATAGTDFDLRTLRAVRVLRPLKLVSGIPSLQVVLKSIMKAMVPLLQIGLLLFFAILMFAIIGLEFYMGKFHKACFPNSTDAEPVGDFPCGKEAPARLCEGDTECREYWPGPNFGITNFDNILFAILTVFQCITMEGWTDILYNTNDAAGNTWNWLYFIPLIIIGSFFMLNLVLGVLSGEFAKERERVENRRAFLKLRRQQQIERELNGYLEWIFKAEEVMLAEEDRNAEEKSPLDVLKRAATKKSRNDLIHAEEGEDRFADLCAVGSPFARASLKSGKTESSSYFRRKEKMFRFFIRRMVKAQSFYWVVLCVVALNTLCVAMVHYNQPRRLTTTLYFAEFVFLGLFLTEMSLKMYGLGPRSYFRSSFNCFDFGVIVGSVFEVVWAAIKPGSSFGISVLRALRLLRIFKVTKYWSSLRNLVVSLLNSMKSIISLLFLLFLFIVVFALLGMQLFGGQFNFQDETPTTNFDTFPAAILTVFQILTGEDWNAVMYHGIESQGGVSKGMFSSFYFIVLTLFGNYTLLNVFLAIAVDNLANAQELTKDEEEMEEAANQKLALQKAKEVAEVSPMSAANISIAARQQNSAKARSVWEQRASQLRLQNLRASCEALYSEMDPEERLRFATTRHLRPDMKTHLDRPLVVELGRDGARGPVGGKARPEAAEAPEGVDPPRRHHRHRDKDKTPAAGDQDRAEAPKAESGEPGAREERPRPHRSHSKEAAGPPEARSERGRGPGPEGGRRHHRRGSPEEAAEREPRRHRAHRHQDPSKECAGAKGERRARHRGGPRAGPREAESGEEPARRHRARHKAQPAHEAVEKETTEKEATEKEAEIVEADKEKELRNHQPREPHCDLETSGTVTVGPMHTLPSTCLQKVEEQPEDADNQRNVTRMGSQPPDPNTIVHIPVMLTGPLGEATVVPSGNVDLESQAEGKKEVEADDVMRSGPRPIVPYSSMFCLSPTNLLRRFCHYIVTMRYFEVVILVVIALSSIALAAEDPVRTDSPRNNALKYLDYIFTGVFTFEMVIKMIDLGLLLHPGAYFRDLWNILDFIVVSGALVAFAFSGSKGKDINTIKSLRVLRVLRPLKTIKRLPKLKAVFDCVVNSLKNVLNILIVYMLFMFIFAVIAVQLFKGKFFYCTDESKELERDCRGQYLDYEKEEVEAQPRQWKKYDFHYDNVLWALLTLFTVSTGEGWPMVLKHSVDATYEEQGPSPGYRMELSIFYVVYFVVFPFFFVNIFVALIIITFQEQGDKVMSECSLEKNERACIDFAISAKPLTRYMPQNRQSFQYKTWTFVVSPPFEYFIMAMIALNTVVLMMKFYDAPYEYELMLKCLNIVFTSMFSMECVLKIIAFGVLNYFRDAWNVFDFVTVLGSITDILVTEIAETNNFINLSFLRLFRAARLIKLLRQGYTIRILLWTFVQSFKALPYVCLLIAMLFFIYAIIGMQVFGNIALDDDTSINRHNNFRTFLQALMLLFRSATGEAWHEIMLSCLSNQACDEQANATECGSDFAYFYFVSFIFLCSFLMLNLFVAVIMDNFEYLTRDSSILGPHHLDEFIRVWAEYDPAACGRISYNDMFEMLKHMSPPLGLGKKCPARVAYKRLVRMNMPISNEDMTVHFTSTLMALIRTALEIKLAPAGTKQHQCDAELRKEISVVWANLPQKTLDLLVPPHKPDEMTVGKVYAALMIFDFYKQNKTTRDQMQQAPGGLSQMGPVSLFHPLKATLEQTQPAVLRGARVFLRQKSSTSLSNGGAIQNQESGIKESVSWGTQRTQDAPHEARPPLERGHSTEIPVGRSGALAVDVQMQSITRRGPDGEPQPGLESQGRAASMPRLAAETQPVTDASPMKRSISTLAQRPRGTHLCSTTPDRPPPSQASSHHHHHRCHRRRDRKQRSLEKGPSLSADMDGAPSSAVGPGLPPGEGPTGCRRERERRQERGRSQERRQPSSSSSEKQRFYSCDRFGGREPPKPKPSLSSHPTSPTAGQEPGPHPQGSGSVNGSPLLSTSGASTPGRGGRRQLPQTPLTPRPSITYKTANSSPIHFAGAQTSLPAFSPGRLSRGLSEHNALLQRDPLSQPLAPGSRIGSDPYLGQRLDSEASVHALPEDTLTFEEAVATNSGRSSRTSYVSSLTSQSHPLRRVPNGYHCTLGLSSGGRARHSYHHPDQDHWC
Sequence of Voltage-gated N-type calcium channel alpha-1B subunit/Amyloid beta A4 precursor protein-binding family A member 1 (Q02410 whole entry): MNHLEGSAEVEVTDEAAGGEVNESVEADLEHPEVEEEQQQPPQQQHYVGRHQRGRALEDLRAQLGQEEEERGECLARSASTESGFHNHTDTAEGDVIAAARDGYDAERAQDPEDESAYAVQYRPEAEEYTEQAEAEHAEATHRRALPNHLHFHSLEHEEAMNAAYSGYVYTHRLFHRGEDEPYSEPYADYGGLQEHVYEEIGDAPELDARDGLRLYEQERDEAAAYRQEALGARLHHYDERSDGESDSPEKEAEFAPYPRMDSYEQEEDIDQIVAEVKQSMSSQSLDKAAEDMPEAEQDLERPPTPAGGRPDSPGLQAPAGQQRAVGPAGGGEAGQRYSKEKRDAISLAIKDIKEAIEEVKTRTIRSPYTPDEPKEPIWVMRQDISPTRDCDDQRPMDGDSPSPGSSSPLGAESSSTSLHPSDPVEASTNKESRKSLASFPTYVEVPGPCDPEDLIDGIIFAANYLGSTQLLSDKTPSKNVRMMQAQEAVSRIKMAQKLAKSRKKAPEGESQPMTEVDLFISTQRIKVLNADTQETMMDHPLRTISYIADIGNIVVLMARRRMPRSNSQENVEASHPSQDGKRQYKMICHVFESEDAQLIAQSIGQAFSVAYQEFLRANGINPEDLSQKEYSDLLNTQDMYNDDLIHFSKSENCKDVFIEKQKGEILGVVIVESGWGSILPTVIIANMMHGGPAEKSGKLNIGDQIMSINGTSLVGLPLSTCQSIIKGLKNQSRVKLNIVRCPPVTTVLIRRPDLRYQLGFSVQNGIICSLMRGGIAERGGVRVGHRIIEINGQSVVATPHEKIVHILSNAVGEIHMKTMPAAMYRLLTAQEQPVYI

Compound: CC(=O)N(C1=C(Cl)C(=O)c2ccccc2C1=O)c1ccc(C(=O)O)cc1
IC50 [1]: 3.35 µM (active)
IC50 (SUMO-activating enzyme): 17.3 µM (active)
IC50 (Caspase-3): 14.2 µM (active)
IC50 [2]: 5.99 µM (active)
IC50 (Hexokinase HKDC1): 6.23 µM (active)

Compound: CC1(C)C=C2C(=NN(c3ccccc3)C(N)=C2C#N)CO1
IC50 [3]: 55.8 µM (not active)
IC50 [4]: 0.0693 µM (active)

Ki [5]: > 3.16 µM (inactive)
Ki [6]: > 2.51 µM (inactive)
Ki [8]: > 6.31 µM (inactive)
Ki [9]: > 5.01 µM (inactive)
Ki [10]: > 6.31 µM (inactive)
Ki [11]: > 2.51 µM (inactive)
Ki [12]: > 2.51 µM (inactive)
Ki (Activated CDC42 kinase 1): > 3.98 µM (inactive)
Ki [13]: > 3.16 µM (inactive)
Ki [14]: > 2.51 µM (inactive)
Ki [15]: > 3.98 µM (inactive)
Ki [16]: > 5.01 µM (inactive)
Ki [17]: > 3.98 µM (inactive)
Ki [18]: > 2 µM (inactive)
Ki [19]: > 2.51 µM (inactive)
Compound: Cc1ccc(-c2cc3nc(Br)cnc3[nH]2)cc1
Ki [7]: > 5.01 µM (inactive)

Compound: O=C1C=C(O)c2c(O)cc(O)c(O)c2C1=O
IC50 (Large T antigen): > 100 µM (active)
EC50 [20]: > 100 µM (inactive)
